Results from patent US20240287545A1, “Improved lysis procedures” (uniQure biopharma B.V., priority 2021, published 2024).

Test system: baculovirus
Experiment: TCID50 assay of infectious baculovirus titer after lysis (baculovirus clearance)
Type: cell-based
Conditions: for baculovirus clearance, TCID50 results: study 1, after detergent treatment (FIG. 3); for baculovirus clearance, TCID50 samples: study 2, CLB, all concentrations tested (0.25% through 1%), bulk material 7.8 log TCID50/mL
Excerpt: A reduction in titer of a rod-like shaped virus, i.e., the factor by which the titer of the virus to be removed is decreased, is preferably at least 5 logs, e.g. after a mixed population of parvoviral particles and 10×10^1 baculoviral virions had been separated in accordance with a method of the invention, no baculoviral virions were then detected in the filtrate. Preferably, the reduction in titer of a rod-like shaped virus that is achieved by a method of the invention is at least 5.5 logs, at least 6 logs, at least 6.5 logs, at least 7 logs, at least 8 logs, at least 9 logs, most preferably at least 10 logs. The titer can be determined by general methods known in the art, such as for example by a Tissue Culture Infectious Dose 50% (TCID50) assay. For example, the infectious baculovirus titer of a population of baculoviral virions in a sample can be determined using a TCID50 assay. This method is based on the infection of monolayers of Sf9 insect cells with infectious baculovirus in a positive control sample. A serial dilution in culture medium of the positive control sample is used to infect the cells. The cells are incubated at +28° C. for 7 days. Subsequently, the supernatants are transferred to newly prepared plates with monolayers of Sf9 insect cells and incubated at +28° C. for 7 days. As infection proceeds, the infected cells are not able to remain attached to each other and to the plate surface and form loose cells, i.e., show cytopathogenic effect (CPE), which can be observed microscopically. The titer in log 10 TCID50/mL is calculated using the Spearman-KArber method.
Analytics performed on samples during these studies included: qPCR to determine vector genome copies (GC) concentration (GC/mL), SEC-HPLC was used to determine total particle (TP) content (TP/mL) which includes empty and full particles which can only be done of samples after affinity chromatography. A TCID50 assay is a measure of infectious baculovirus titer and is used to test clearance of baculovirus after the lysis step where the detergent is added. Potency was determined based on the ability of the product to mediate production of active transgene polypeptide product (here FIX) by Huh-7 cells as compared to a reference sample. Huh-7 cells are infected and cultured to allow production of transgene polypeptide which is then quantified using a commercially obtained activity assay (221805 or 221806 from Hyphen Biomed). LDAO clearance in the drug substance (DS) was measured with an outsourced commercially available chromatographic method.
4.1 different surfactants can be used This first study involved crude bulk material generation using a shaker flask-based protocol following the process outlined in Example 1, until affinity chromatography; where the batch binding method was used. […]

Structure (SMILES) | baculovirus clearance, TCID50 results | baculovirus clearance, TCID50 samples
CCCCCCCCCCCCO[C@@H]1O[C@H](CO)[C@@H](O[C@H]2O[C@H](CO)[C@@H](O)[C@H](O)[C@H]2O)[C@H](O)[C@H]1O [DDM, n-dodecyl-beta-D-maltoside] | below the limit of detection | below the limit of detection
CCCCCCCCCCCC[N+](C)(C)[O-] [LDAO, lauryldimethylamine oxide] | below the limit of detection | below the limit of detection
